Target: T1, human full-length MKNK1 (Homo sapiens, UniProt Q9BUB5, T385D)
T1 construct: purchased Carna Biosciences 02-145; host or cells: insect cells (baculovirus expression system)
Test: MKNK1 kinase high ATP assay (TR-FRET)
Assay type: biochemical
Conditions: high ATP (2 mM final), 15 min preincubation with enzyme, GST-MKNK1 (T344D)
Procedure: MKNK1-inhibitory activity at high ATP of compounds of the present invention after their preincubation with MKNK1 was quantified employing the TR-FRET-based MKNK1 high ATP assay as described in the following paragraphs.
A recombinant fusion protein of Glutathione-S-Transferase (GST, N-terminally) and human full-length MKNK1 (amino acids 1-424 and T344D of accession number BAA 19885.1), expressed in insect cells using baculovirus expression system and purified via glutathione sepharose affinity chromatography, was purchased from Carna Biosciences (product no 02-145) and used as enzyme. As substrate for the kinase reaction the biotinylated peptide biotin-Ahx-IKKRKLTRRKSLKG (C-terminus in amide form) was used, which can be purchased e.g. from the company Biosyntan (Berlin-Buch, Germany).
For the assay 50 nL of a 100 fold concentrated solution of the test compound in DMSO was pipetted into a black low volume 384 well microtiter plate (Greiner Bio-One, Frickenhausen, Germany), 2 μL of a solution of MKNK1 in aqueous assay buffer [50 mM HEPES pH 7.5, 5 mM MgCl2, 1.0 mM dithiothreitol, 0.005% (v/v) Nonidet-P40 (Sigma)] was added and the mixture was incubated for 15 min at 22° C. to allow pre-binding of the test compounds to the enzyme before the start of the kinase reaction. Then the kinase reaction was started by the addition of 3 μL of a solution of adenosine-tri-phosphate (ATP, 3.3 mM=> final conc. in the 5 μL assay volume is 2 mM) and substrate (0.1 μM=> final conc. in the 5 μL assay volume is 0.06 μM) in assay buffer and the resulting mixture was incubated for a reaction time of 30 min at 22° C. The concentration of MKNK1 was adjusted depending of the activity of the enzyme lot and was chosen appropriate to have the assay in the linear range, typical concentrations were in the range of 0.003 μg/mL. The reaction was stopped by the addition of 5 μL of a solution of TR-FRET detection reagents (5 nM streptavidine-XL665 [Cisbio Bioassays, Codolet, France] and 1 nM anti-ribosomal protein S6 (pSer236)-antibody from Invitrogen [#44921G] and 1 nM LANCE EU-W1024 labeled ProteinG [Perkin-Elmer, product no. AD0071]) in an aqueous EDTA-solution (100 mM EDTA, 0.1% (w/v) bovine serum albumin in 50 mM HEPES pH 7.5).
The resulting mixture was incubated for 1 h at 22° C. to allow the formation of complex between the phosphorylated biotinylated peptide and the detection reagents. Subsequently the amount of phosphorylated substrate was evaluated by measurement of the resonance energy transfer from the Eu-chelate to the streptavidine-XL. Therefore, the fluorescence emissions at 620 nm and 665 nm after excitation at 350 nm were measured in a TR-FRET reader, e.g. a Rubystar (BMG Labtechnologies, Offenburg, Germany) or a Viewlux (Perkin-Elmer). The ratio of the emissions at 665 nm and at […] was taken as the measure for the amount of phosphorylated substrate. The data were normalised (enzyme reaction without inhibitor=0% inhibition, all other assay components but no enzyme=100% inhibition).

T1 sequence (Q9BUB5 1-424 isoform Q9BUB5-2 T344D): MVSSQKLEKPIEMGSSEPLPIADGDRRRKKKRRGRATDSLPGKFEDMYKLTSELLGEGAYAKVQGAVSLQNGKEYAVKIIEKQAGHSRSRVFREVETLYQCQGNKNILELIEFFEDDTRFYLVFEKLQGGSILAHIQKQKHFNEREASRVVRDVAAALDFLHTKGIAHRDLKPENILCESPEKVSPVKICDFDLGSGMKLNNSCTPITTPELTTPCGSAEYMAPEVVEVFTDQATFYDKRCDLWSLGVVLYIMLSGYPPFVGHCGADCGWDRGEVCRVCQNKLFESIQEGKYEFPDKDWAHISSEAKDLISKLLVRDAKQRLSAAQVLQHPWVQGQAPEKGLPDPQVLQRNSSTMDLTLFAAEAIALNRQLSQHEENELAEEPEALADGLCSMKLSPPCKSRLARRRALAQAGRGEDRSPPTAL

| SMILES | IC50 [nM] |
| --- | --- |
| CC(C)NC(=O)C1CCc2c(sc3ncnc(Nc4cnc5[nH]ncc5c4)c23)C1 (racemic) [Example 23, (RS)—N-(Propan-2-yl)-4-(1H-pyrazolo[3,4-b]pyridin-5-ylamino)-5,6,7,8-tetrahydro[1]benzothieno[2,3-d]pyrimidine-7-carboxamide] | 10.4 |
| CC(C)NC(=O)C1CCc2c(sc3ncnc(Nc4cc5cn[nH]c5cn4)c23)C1 (racemic) [Example 24, (RS)—N-(Propan-2-yl)-4-(1H-pyrazolo[3,4-c]pyridin-5-ylamino)-5,6,7,8-tetrahydro[1]benzothieno[2,3-d]pyrimidine-7-carboxamide] | 10.7 |
| CN1CCN(C(=O)C2CCc3c(sc4ncnc(Nc5cnc6[nH]ncc6c5)c34)C2)CC1 (racemic) [Example 25, (RS)-(4-Methylpiperazin-1-yl)[4-(1H-pyrazolo[3,4-b]pyridin-5-ylamino)-5,6,7,8-tetrahydro[1]benzothieno[2,3-d]pyrimidin-7-yl]methanone] | 13.8 |
| CN1CCN(C(=O)C2CCc3c(sc4ncnc(Nc5cc6cn[nH]c6cn5)c34)C2)CC1 (racemic) [Example 26, (RS)-(4-Methylpiperazin-1-yl)[4-(1H-pyrazolo[3,4-c]pyridin-5-ylamino)-5,6,7,8-tetrahydro[1]benzothieno[2,3-d]pyrimidin-7-yl]methanone] | 38.2 |
| CN(C)C(=O)C1CCc2c(sc3ncnc(Nc4cnc5[nH]ncc5c4)c23)C1 (racemic) [Example 27, (RS)—N,N-Dimethyl-4-(1H-pyrazolo[3,4-b]pyridin-5-ylamino)-5,6,7,8-tetrahydro[1]benzothieno[2,3-d]pyrimidine-7-carboxamide] | 20.3 |
| CN(C)C(=O)C1CCc2c(sc3ncnc(Nc4cc5cn[nH]c5cn4)c23)C1 (racemic) [Example 28, (RS)—N,N-Dimethyl-4-(1H-pyrazolo[3,4-c]pyridin-5-ylamino)-5,6,7,8-tetrahydro[1]benzothieno[2,3-d]pyrimidine-7-carboxamide] | 9.8 |
| CC(C)NC(=O)C1CCc2[nH]c3ncnc(Nc4cnc5[nH]ncc5c4)c3c2C1 (racemic) [Example 29, (RS)—N-(Propan-2-yl)-4-(1H-pyrazolo[3,4-b]pyridin-5-ylamino)-6,7,8,9-tetrahydro-5H-pyrimido[4,5-b]indole-6-carboxamide] | 24.7 |
| CN(C)C(=O)C1CCc2[nH]c3ncnc(Nc4cnc5[nH]ncc5c4)c3c2C1 (racemic) [Example 30, (RS)—N,N-Dimethyl-4-(1H-pyrazolo[3,4-b]pyridin-5-ylamino)-6,7,8,9-tetrahydro-5H-pyrimido[4,5-b]indole-6-carboxamide] | 50.7 |
| CN(C)C(=O)C1CCc2[nH]c3ncnc(Nc4cc5cn[nH]c5cn4)c3c2C1 (racemic) [Example 31, (RS)—N,N-Dimethyl-4-(1H-pyrazolo[3,4-c]pyridin-5-ylamino)-6,7,8,9-tetrahydro-5H-pyrimido[4,5-b]indole-6-carboxamide] | 59.1 |
| CN1CCN(C(=O)C2CCc3[nH]c4ncnc(Nc5cnc6[nH]ncc6c5)c4c3C2)CC1 (racemic) [Example 32, (RS)-(4-Methylpiperazin-1-yl)[4-(1H-pyrazolo[3,4-b]pyridin-5-ylamino)-6,7,8,9-tetrahydro-5H-pyrimido[4,5-b]indol-6-yl]methanone] | 49 |
| CN1CCN(C(=O)C2CCc3[nH]c4ncnc(Nc5cc6cn[nH]c6cn5)c4c3C2)CC1 (racemic) [Example 33, (RS)-(4-Methylpiperazin-1-yl)[4-(1H-pyrazolo[3,4-c]pyridin-5-ylamino)-6,7,8,9-tetrahydro-5H-pyrimido[4,5-b]indol-6-yl]methanone] | 90.4 |
| c1nc(Nc2cnc3[nH]ncc3c2)c2cc[nH]c2n1 [Example 1, N-(7H-Pyrrolo[2,3-d]pyrimidin-4-yl)-1H-pyrazolo[3,4-b]pyridin-5-amine] | 28.1 |
| c1nc(Nc2cc3cn[nH]c3cn2)c2cc[nH]c2n1 [Example 2, N-(7H-Pyrrolo[2,3-d]pyrimidin-4-yl)-1H-pyrazolo[3,4-c]pyridin-5-amine] | 23.8 |
| Cc1c[nH]c2ncnc(Nc3cnc4[nH]ncc4c3)c12 [Example 3, N-(5-Methyl-7H-pyrrolo[2,3-d]pyrimidin-4-yl)-1H-pyrazolo[3,4-b]pyridin-5-amine] | 25.9 |
| Cc1c[nH]c2ncnc(Nc3cc4cn[nH]c4cn3)c12 [Example 4, N-(5-Methyl-7H-pyrrolo[2,3-d]pyrimidin-4-yl)-1H-pyrazolo[3,4-c]pyridin-5-amine] | 4.2 |
| CCc1c[nH]c2ncnc(Nc3cnc4[nH]ncc4c3)c12 [Example 5, N-(5-Ethyl-7H-pyrrolo[2,3-d]pyrimidin-4-yl)-1H-pyrazolo[3,4-b]pyridin-5-amine] | 12.2 |
| CCc1c[nH]c2ncnc(Nc3cc4cn[nH]c4cn3)c12 [Example 6, N-(5-Ethyl-7H-pyrrolo[2,3-d]pyrimidin-4-yl)-1H-pyrazolo[3,4-c]pyridin-5-amine] | 7.3 |
| CCc1[nH]c2ncnc(Nc3cnc4[nH]ncc4c3)c2c1C [Example 7, N-(6-Ethyl-5-methyl-7H-pyrrolo[2,3-d]pyrimidin-4-yl)-1H-pyrazolo[3,4-b]pyridin-5-amine] | 28.9 |
| CCc1[nH]c2ncnc(Nc3cc4cn[nH]c4cn3)c2c1C [Example 8, N-(6-Ethyl-5-methyl-7H-pyrrolo[2,3-d]pyrimidin-4-yl)-1H-pyrazolo[3,4-c]pyridin-5-amine] | 11.5 |
| CCOC(=O)c1cc2c(Nc3cnc4[nH]ncc4c3)ncnc2[nH]1 [Example 9, Ethyl 4-(1H-pyrazolo[3,4-b]pyridin-5-ylamino)-7H-pyrrolo[2,3-d]pyrimidine-6-carboxylate] | 3 |
| CCOC(=O)c1cc2c(Nc3cc4cn[nH]c4cn3)ncnc2[nH]1 [Example 10, Ethyl 4-(1H-pyrazolo[3,4-c]pyridin-5-ylamino)-7H-pyrrolo[2,3-d]pyrimidine-6-carboxylate] | 6.6 |
| O=C(O)c1cc2c(Nc3cc4cn[nH]c4cn3)ncnc2[nH]1 [Example 11, 4-(1H-Pyrazolo[3,4-c]pyridin-5-ylamino)-7H-pyrrolo[2,3-d]pyrimidine-6-carboxylic acid] | 24.1 |
| CCOC(=O)c1[nH]c2ncnc(Nc3cnc4[nH]ncc4c3)c2c1Br [Example 12, Ethyl 5-bromo-4-(1H-pyrazolo[3,4-b]pyridin-5-ylamino)-7H-pyrrolo[2,3-d]pyrimidine-6-carboxylate] | 5 |
| O=C(O)c1[nH]c2ncnc(Nc3cc4cn[nH]c4cn3)c2c1Br [Example 14, 5-Bromo-4-(1H-pyrazolo[3,4-c]pyridin-5-ylamino)-7H-pyrrolo[2,3-d]pyrimidine-6-carboxylic acid] | 2.8 |
| FC(F)(F)c1c[nH]c2ncnc(Nc3cnc4[nH]ncc4c3)c12 [Example 15, N-[5-(Trifluoromethyl)-7H-pyrrolo[2,3-d]pyrimidin-4-yl]-1H-pyrazolo[3,4-b]pyridin-5-amine] | 28.8 |
| FC(F)(F)c1c[nH]c2ncnc(Nc3cc4cn[nH]c4cn3)c12 [Example 16, N-[5-(Trifluoromethyl)-7H-pyrrolo[2,3-d]pyrimidin-4-yl]-1H-pyrazolo[3,4-c]pyridin-5-amine] | 52.9 |
| OCc1c[nH]c2ncnc(Nc3cnc4[nH]ncc4c3)c12 [Example 17, [4-(1H-Pyrazolo[3,4-b]pyridin-5-ylamino)-7H-pyrrolo[2,3-d]pyrimidin-5-yl]methanol] | 32.2 |
| CN(C)C(=O)c1cc2c(Nc3cc4cn[nH]c4cn3)ncnc2[nH]1 [Example 18, N,N-Dimethyl-4-(1H-pyrazolo[3,4-c]pyridin-5-ylamino)-7H-pyrrolo[2,3-d]pyrimidine-6-carboxamide] | 11.1 |
| O=C(c1cc2c(Nc3cc4cn[nH]c4cn3)ncnc2[nH]1)N1CCCC1 [Example 19, [4-(1H-Pyrazolo[3,4-c]pyridin-5-ylamino)-7H-pyrrolo[2,3-d]pyrimidin-6-yl](pyrrolidin-1-yl)methanone] | 5.8 |
| O=C(c1cc2c(Nc3cc4cn[nH]c4cn3)ncnc2[nH]1)N1CCCCC1 [Example 20, Piperidin-1-yl[4-(1H-pyrazolo[3,4-c]pyridin-5-ylamino)-7H-pyrrolo[2,3-d]pyrimidin-6-yl]methanone] | 7.8 |
